Results as given in patent publication US8778923B2, “GLP-1 receptor modulators” (Receptos, Inc., priority 2011, dated 2014).

Biological target: T1, GLP-1R (Homo sapiens, UniProt P43220)
T1 construct: host or cells: CRE-bla CHO-K1
Assay: EC20 GLP-1(9-36) PAM cAMP assay: dose response of compound in the presence of fixed concentration of GLP-1(9-36)
Format: cell-based
Settings: GLP-1R CRE-bla CHO-K1 cells, compound dose response in presence of fixed concentration of GLP-1(9-36)
Summary of the method: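 Positive allosteric modulation read as cAMP rise: 12-point compound titration combined with a fixed EC20 level of GLP-1(9-36) on GLP-1R CHO-K1 cells, IBMX present, 30 min at 37 °C. Luminescent HitHunter signal converted to cAMP; nonlinear fit gave EC50 and Emax.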

T1 sequence (P43220 24-463): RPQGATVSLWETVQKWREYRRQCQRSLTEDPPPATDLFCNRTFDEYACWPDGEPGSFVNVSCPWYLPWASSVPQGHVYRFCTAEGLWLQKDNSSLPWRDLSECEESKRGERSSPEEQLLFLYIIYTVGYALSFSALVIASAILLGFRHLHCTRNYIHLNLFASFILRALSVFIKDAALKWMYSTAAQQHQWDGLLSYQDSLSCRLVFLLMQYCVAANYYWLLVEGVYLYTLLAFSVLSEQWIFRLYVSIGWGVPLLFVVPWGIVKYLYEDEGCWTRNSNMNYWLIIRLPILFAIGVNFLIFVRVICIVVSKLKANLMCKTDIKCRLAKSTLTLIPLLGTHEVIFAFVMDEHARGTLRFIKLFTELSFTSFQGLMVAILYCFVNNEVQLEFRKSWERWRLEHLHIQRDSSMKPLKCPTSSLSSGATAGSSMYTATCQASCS
T1 sequence (P01275 100-127 partner limits assumed): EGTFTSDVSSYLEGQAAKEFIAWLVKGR

Row | EC50 | SMILES
1 | < 800 nM | CCCCCCCOc1ccc(-c2cnc(-c3ccc(C[C@H](NC(=O)c4ccc(C(C)(C)C)s4)C(=O)N4CCCC(C(=O)O)C4)cc3)nc2)cc1 (some centres unmarked) [Compound 347]
2 | 2500 to 5000 nM | CC(C)(C)c1ccc(C(=O)N[C@@H](Cc2ccc(-c3ncc(N4CCC(C(C)(C)C)CC4)cn3)cc2)C(=O)O)cc1 [Compound 253, (S)-2-(4-(tert-butyl)benzamido)-3-(4-(5-(4-(tert-butyl)piperidin-1-yl)pyrimidin-2-yl)phenyl)propanoic acid]
3 | 2500 to 5000 nM | CC(=O)Nc1ccc(-c2nc(-c3ccc(C[C@H](NC(=O)c4ccc(C(C)(C)C)cc4)C(=O)O)cc3)no2)cc1 [Compound 44]
4 | 2500 to 5000 nM | CC(C)c1ccc(-c2nc(-c3ccc(C[C@H](NC(=O)c4ccc(C(C)(C)C)cc4)C(=O)O)cc3)no2)cc1 [Compound 10]
5 | 800 to 2500 nM | Cc1cccc(-c2ccc(-c3cnc(-c4ccc(C[C@H](NC(=O)c5ccc(C(C)(C)C)s5)C(=O)O)cc4)nc3)cc2)c1 [Compound 247]
6 | 2500 to 5000 nM | CC(C)(C)Oc1ccc(-c2nc(-c3ccc(C[C@H](NC(=O)c4ccc(C(C)(C)C)cc4)C(=O)O)cc3)no2)cc1 [Compound 56]
7 | 800 to 2500 nM | CCCCCCCOc1ccc(-c2cnc(-c3ccc(C[C@H](NC(=O)c4ccc(C(C)(C)C)cc4)C(=O)NCC(=O)NS(C)(=O)=O)cc3)nc2)cc1 [Compound 381, (S)-4-(tert-butyl)-N-(3-(4-(5-(4-(heptyloxy)phenyl)pyrimidin-2-yl)phenyl)-1-((2-(methylsulfonamido)-2-oxoethyl)amino)-1-oxopropan-2-yl)benzamide]
8 | 2500 to 5000 nM | Cc1ccc(-c2cnc(-c3ccc(C[C@H](NC(=O)c4ccc(C(C)(C)C)cc4)C(=O)O)cc3)nc2)cc1C [Compound 227]
9 | < 800 nM | CCCCCCCOc1ccc(-c2cnc(-c3ccc(C[C@H](NC(=O)c4ccc(C(C)C)cc4)C(=O)N[C@@H](CC(N)=O)C(=O)O)cc3)nc2)cc1 [Compound 306]
10 | 800 to 2500 nM | CCCCCCCOc1ccc(-c2cnc(-c3ccc(C[C@H](NC(=O)c4ccc(C(C)(C)C)s4)C(=O)N[C@@H](C)CC(=O)O)cc3)nc2)cc1 [Compound 346]
11 | 800 to 2500 nM | CCCCCCCOc1ccc(-c2cnc(-c3ccc(C[C@H](NC(=O)c4ccc(S(C)(=O)=O)cc4)C(=O)O)cc3)nc2)cc1 [Compound 99]
12 | 800 to 2500 nM | CCCCOc1ccc(-c2cnc(-c3ccc(C[C@H](NC(=O)c4ccc(C(C)(C)C)s4)C(=O)O)cc3)nc2)cc1 [Compound 237]
13 | 800 to 2500 nM | CCCCCCCOc1ccc(-c2cnc(-c3ccc(C[C@H](NS(=O)(=O)c4ccc(OC(C)C)cc4)C(=O)O)cc3)nc2)cc1 [Compound 189]
14 | < 800 nM | CC(C)(C)c1ccc(-c2cnc(-c3ccc(C[C@H](NC(=O)c4ccc(C(C)(C)C)s4)C(=O)N[C@@H](CO)C(=O)O)cc3)nc2)cc1 [Compound 352]
15 | < 800 nM | CCCCCCCOc1ccc(-c2cnc(-c3ccc(C[C@H](NC(=O)c4cc5cccnc5s4)C(=O)O)cc3)nc2)cc1 [Compound 158]
16 | 800 to 2500 nM | CCCCCCCOc1ccc(-c2cnc(-c3ccc(C[C@H](NC(=O)c4ccn(C(C)C)n4)C(=O)O)cc3)nc2)cc1 [Compound 144]
17 | 5000 to 10000 nM | CC1CCN(c2ccc(-c3nc(-c4ccc(C[C@H](NC(=O)c5ccc(C(C)(C)C)cc5)C(=O)O)cc4)no3)cc2)CC1 [Compound 6]
18 | 800 to 2500 nM | CCCCCCOc1ccc(-c2cnc(-c3ccc(C[C@H](NC(=O)c4ccc(C(C)(C)C)cc4)C(=O)O)cc3)nc2)cn1 [Compound 257]
19 | 2500 to 5000 nM | CC(C)(C)c1ccc(C(=O)N[C@@H](Cc2ccc(-c3ncc(-c4ccc(F)cc4)cn3)cc2)C(=O)O)cc1 [Compound 206]
20 | 2500 to 5000 nM | CCCCCCCOc1ccccc1-c1cnc(-c2ccc(C[C@H](NC(=O)c3ccc(C(C)(C)C)cc3)C(=O)O)cc2)nc1 [Compound 220]
21 | 800 to 2500 nM | CCCCCCCOc1ccc(-c2cnc(-c3ccc(C[C@H](NC(=O)c4ccc(OCCCC)cc4)C(=O)O)cc3)nc2)cc1 [Compound 129]
22 | 800 to 2500 nM | CCCCCCCOc1ccc(-c2cnc(-c3ccc(C[C@H](NC(=O)c4ccc(C(C)(C)C)s4)C(=O)N[C@@H](Cc4cnc[nH]4)C(=O)O)cc3)nc2)cc1 [Compound 332]
23 | 800 to 2500 nM | CCCCCCCOc1ccc(-c2cnc(-c3ccc(C[C@H](NC(=O)c4cnn(C(C)C)c4)C(=O)O)cc3)nc2)cc1 [Compound 139]
24 | 800 to 2500 nM | CCCCCCCOc1ccc(-c2cnc(-c3ccc(C[C@H](NC(=O)c4cnn(C(C)C)c4)C(=O)NCC(=O)O)cc3)nc2)cc1 [Compound 369]
25 | 800 to 2500 nM | C[C@@H](NC(=O)[C@H](Cc1ccc(-c2ncc(-c3ccc(C(C)(C)C)cc3)cn2)cc1)NC(=O)c1ccc(C(C)(C)C)s1)C(=O)O [Compound 357]
26 | 800 to 2500 nM | CCCCCCCOc1ccc(-c2cnc(-c3ccc(C[C@H](NC(=O)c4ccc(CC)o4)C(=O)O)cc3)nc2)cc1 [Compound 138]
27 | 800 to 2500 nM | CC(C)(C)c1ccc(-c2cnc(-c3ccc(C[C@H](NC(=O)c4cnn(C(C)(C)C)c4)C(=O)O)cc3)nc2)cc1 [Compound 178]

Row | EC50 | SMILES
28 | 800 to 2500 nM | CC(C)(C)c1ccc(-c2cnc(-c3ccc(C[C@H](NC(=O)c4ccc(S(C)(=O)=O)cc4)C(=O)O)cc3)nc2)cc1 [Compound 159]
29 | 2500 to 5000 nM | CN(C)c1ccc(-c2cnc(-c3ccc(C[C@H](NC(=O)c4ccc(C(C)(C)C)cc4)C(=O)O)cc3)nc2)cc1 [Compound 201]
30 | 800 to 2500 nM | CC(C)n1cc(C(=O)N[C@@H](Cc2ccc(-c3ncc(-c4ccc(C(C)(C)C)cc4)cn3)cc2)C(=O)NCC(=O)O)cn1 [Compound 370]
31 | 2500 to 5000 nM | COc1cc(OC)cc(-c2ccc(-c3nc(-c4ccc(C[C@H](NC(=O)c5ccc(C(C)(C)C)cc5)C(=O)O)cc4)no3)cc2)c1 [Compound 26]
32 | 800 to 2500 nM | CC(C)(C)c1ccc(C(=O)N[C@@H](Cc2ccc(-c3ncc(-c4ccc(C(C)(C)C)cc4)cn3)cc2)C(=O)O)cc1 [Compound 199]
33 | 5000 to 10000 nM | Cn1ccc2c(-c3nc(-c4ccc(C[C@H](NC(=O)c5ccc(C(C)(C)C)cc5)C(=O)O)cc4)no3)cccc21 [Compound 49]
34 | < 800 nM | CCCCCCCOc1ccc(-c2cnc(-c3ccc(C[C@H](NC(=O)c4ccc(C(C)(C)C)s4)C(=O)NCC(=O)O)cc3)nc2)cc1 [Compound 319, (S)-(2-(5-(tert-butyl)thiophene-2-carboxamido)-3-(4-(5-(4-(heptyloxy)phenyl)pyrimidin-2-yl)phenyl)propanoyl)glycine]
35 | 800 to 2500 nM | CCCCCCCOc1ccc(-c2cnc(-c3ccc(C[C@H](NC(=O)c4ccc(C(C)C)cc4)C(=O)N[C@@H](Cc4cnc[nH]4)C(=O)O)cc3)nc2)cc1 [Compound 311]
36 | 2500 to 5000 nM | CC(C)(C)c1ccc(C(=O)N[C@@H](CCc2ccc(-c3noc(-c4ccc(N5CCCCC5)cc4)n3)cc2)C(=O)O)cc1 [Compound 74]
37 | 800 to 2500 nM | CCCCCCCOc1ccc(-c2cnc(-c3ccc(C[C@H](NC(=O)c4ccc(C(C)(C)C)cc4OC)C(=O)O)cc3)nc2)cc1 [Compound 106]
38 | 800 to 2500 nM | CCCCCCCOc1ccc(-c2cnc(-c3ccc(C[C@H](NC(=O)c4ccc(C(C)(C)C)cc4)C(=O)O)cc3)nc2OC)cc1 [Compound 292, (S)-2-(4-(tert-butyl)benzamido)-3-(4-(5-(4-(heptyloxy)phenyl)-4-methoxypyrimidin-2-yl)phenyl)propanoic acid]
39 | 800 to 2500 nM | CCCCCCCOc1ccc(-c2cnc(-c3ccc(C[C@H](NS(=O)(=O)c4ccccc4)C(=O)O)cc3)nc2)cc1 [Compound 184]
40 | 800 to 2500 nM | CCCCCCCOc1ccc(-c2ccc(-c3ccc(C[C@H](NC(=O)c4ccc(C(C)(C)C)cc4)C(=O)O)cc3)nc2)cc1 [Compound 269]
41 | 5000 to 10000 nM | CCCCCCCn1nnnc1-c1cnc(-c2ccc(C[C@H](NC(=O)c3ccc(C(C)(C)C)cc3)C(=O)O)cc2)nc1 [Compound 255]
42 | 800 to 2500 nM | CCCCCCCOc1ccc(-c2cnc(-c3ccc(C[C@@H](NC(=O)c4ccc(C(C)(C)C)s4)C(=O)O)cc3)nc2)cc1 [Compound 193]
43 | 5000 to 10000 nM | CCCCCCCOc1ccc(-c2nc(-c3ccc(C[C@H](NC(=O)c4ccc(C(C)(C)C)cc4)C(=O)NS(C)(=O)=O)cc3)no2)cc1 [Compound 69]
44 | 800 to 2500 nM | CCCCCCCOc1ccc(-c2cnc(-c3ccc(C[C@H](NC(=O)Cc4cc5ccccc5s4)C(=O)O)cc3)nc2)cc1 [Compound 155]
45 | < 800 nM | CCCCCCCOc1ccc(-c2cnc(-c3ccc(C[C@H](NC(=O)c4cnn(C(C)(C)C)c4)C(=O)NCC(=O)O)cc3)nc2)cc1 [Compound 372]
46 | 2500 to 5000 nM | CCCCCCCOc1ccc(-c2cnc(-c3ccc(C[C@H](NC(=O)c4ccc(CCC)s4)C(=O)O)cc3)nc2)cc1 [Compound 147]
47 | 800 to 2500 nM | CCCCCCCOc1ccc(-c2cnc(-c3ccc(C[C@H](NC(=O)c4ccc(C(C)(C)C)cc4)C(=O)O)cc3)nc2)cc1 [Compound 85, (S)-2-(4-(tert-butyl)benzamido)-3-(4-(5-(4-(heptyloxy)phenyl)pyrimidin-2-yl)phenyl)propanoic acid]
48 | 800 to 2500 nM | CC(C)(C)c1ccc(C(=O)N[C@@H](Cc2ccc(-c3noc(-c4ccc(-c5ccc(C#N)cc5)cc4)n3)cc2)C(=O)O)cc1 [Compound 29]
49 | 2500 to 5000 nM | CCCCCCCOc1ccc(-c2cnc(-c3ccc(C[C@H](NC(=O)c4ccc(N5CCCC5)cc4)C(=O)O)cc3)nc2)cc1 [Compound 90]
50 | 2500 to 5000 nM | CC(C)(C)c1ccc(C(=O)N[C@@H](Cc2ccc(-c3ncc(-c4ccc(C(F)(F)F)cc4)cn3)cc2)C(=O)O)s1 [Compound 240]
51 | 800 to 2500 nM | CCCCCCCOc1ccc(-c2cnc(-c3ccc(C[C@H](NC(=O)c4ccc(C(C)C)cc4)C(=O)N[C@H](C)C(=O)O)cc3)nc2)cc1 [Compound 312]
52 | 5000 to 10000 nM | CC(C)(C)c1ccc(C(=O)NC(C(=O)O)c2ccc(-c3noc(-c4ccc(N5CCCCC5)cc4)n3)cc2)cc1 (centres unmarked) [Compound 72]
53 | 800 to 2500 nM | CCCCCCCOc1ccc(-c2cnc(-c3ccc(C[C@H](NC(=O)c4ccc(C(C)(C)C)s4)C(=O)N(C)CCC(=O)O)cc3)nc2)cc1 [Compound 334]
